pIC50: −log10 of the molar value.
How the values were obtained:
[1] = molecular target: 3',5'-cyclic-AMP phosphodiesterase 4B (Homo sapiens, UniProt Q07343); assay: Inhibition of human PDE4B1 expressed in insect cells assessed as inhibition of [3H]cAMP to [3H]AMP hydrolysis after 30 mins by scintillation counting
[2] = test system: Lymphocyte; assay: Inhibition of IL2 production in activated mouse lymphocytes after 3 hrs by ELISA; assay type: functional, cell-based
[3] = molecular target: High affinity 3',5'-cyclic-AMP phosphodiesterase 7A (Homo sapiens, UniProt Q13946); assay: Inhibition of human PDE7A1 expressed in insect cells assessed as inhibition of [3H]cAMP to [3H]AMP hydrolysis after 30 mins by scintillation counting
[4] = Permeability of the compound by PAMPA; assay type: ADME
[5] = test system: Liver microsome; assay: Stability in human liver microsomes; assay type: ADME
[6] = test system: Liver microsome; assay: Stability in rat liver microsomes; assay type: ADME

Chain of 3',5'-cyclic-AMP phosphodiesterase 4B (Q07343 whole entry): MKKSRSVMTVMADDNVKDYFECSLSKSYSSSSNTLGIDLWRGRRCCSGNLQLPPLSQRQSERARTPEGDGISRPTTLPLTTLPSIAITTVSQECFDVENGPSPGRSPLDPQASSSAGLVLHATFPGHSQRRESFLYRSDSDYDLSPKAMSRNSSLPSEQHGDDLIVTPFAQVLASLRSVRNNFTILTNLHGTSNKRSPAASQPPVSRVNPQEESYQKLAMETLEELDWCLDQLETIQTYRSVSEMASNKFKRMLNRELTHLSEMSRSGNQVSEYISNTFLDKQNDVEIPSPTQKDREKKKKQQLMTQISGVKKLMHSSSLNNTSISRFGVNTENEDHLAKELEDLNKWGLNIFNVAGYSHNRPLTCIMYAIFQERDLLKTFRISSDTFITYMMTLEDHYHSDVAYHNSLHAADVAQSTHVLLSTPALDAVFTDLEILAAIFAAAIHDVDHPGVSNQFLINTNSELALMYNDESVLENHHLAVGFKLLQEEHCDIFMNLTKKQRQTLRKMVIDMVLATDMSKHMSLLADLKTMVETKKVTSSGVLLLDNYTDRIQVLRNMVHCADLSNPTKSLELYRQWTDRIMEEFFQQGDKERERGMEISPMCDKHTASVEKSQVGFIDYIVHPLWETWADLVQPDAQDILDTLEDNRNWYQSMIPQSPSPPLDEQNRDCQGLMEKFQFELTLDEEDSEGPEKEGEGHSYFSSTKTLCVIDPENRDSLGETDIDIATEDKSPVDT
Chain of High affinity 3',5'-cyclic-AMP phosphodiesterase 7A (Q13946 whole entry): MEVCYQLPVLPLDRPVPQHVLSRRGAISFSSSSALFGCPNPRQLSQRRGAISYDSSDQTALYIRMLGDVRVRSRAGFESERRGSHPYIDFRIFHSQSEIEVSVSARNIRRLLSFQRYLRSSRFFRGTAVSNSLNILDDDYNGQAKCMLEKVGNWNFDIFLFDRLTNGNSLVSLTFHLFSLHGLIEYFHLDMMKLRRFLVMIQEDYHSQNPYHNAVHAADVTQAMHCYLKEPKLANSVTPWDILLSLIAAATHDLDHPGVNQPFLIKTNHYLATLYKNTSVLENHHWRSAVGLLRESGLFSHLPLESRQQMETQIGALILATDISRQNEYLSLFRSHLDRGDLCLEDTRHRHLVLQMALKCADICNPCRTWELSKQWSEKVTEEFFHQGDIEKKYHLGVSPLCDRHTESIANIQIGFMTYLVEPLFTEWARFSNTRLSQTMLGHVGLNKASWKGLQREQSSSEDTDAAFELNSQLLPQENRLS

SMILES | pIC50 [1] | pIC50 [2] | pIC50 [3] | permeability [4] | Stability [5] | Stability [6]
CCn1c(NC2CCCC2)nc2c(C)csc2c1=O | 5.42 | < 5.52 | 7.01 | – | – | –
CCn1c(NC2CCCC2)nc2c(CCc3cccnc3)csc2c1=O | 5.96 | 6.00 | 8.14 | – | – | –
CCn1c(NC2CCCC2)nc2c(CCCN3CCOCC3)csc2c1=O | 5.47 | 5.70 | 7.41 | – | – | –
CCn1c(NC2CCCC2)nc2c(-c3ccccc3C(=O)OC)csc2c1=O | 5.42 | 5.04 | 6.42 | – | – | –
CCn1c(NC2CCCC2)nc2ccsc2c1=O | 5.31 | 5.27 | 6.82 | – | – | –
CCn1c(NC2CCCC2)nc2c(C#CCN3CCOCC3)csc2c1=O | 6.09 | 5.77 | 7.72 | – | – | –
CCn1c(NC2CCCC2)nc2c(C#N)csc2c1=O | 5.49 | 6.05 | 7.17 | – | – | –
C#Cc1csc2c(=O)n(CC)c(NC3CCCC3)nc12 | 5.52 | 6.25 | – | – | – | –
CCn1c(NC2CCCC2)nc2c(-c3ccc(CN4CCOCC4)cc3)csc2c1=O | 6.19 | 6.00 | 8.64 | permeable | Unstable | Unstable
CCn1c(NC2CCCCC2)nc2ccsc2c1=O | – | – | 6.13 | – | – | –
CCn1c(NC2CCCC2)nc2c(-c3ccc(C(=O)OC)cc3)csc2c1=O | 6.00 | 5.89 | 8.31 | – | – | –
CCn1c(NC2CCCC2)nc2c(-c3ccccc3)csc2c1=O | 6.14 | 5.74 | 8.25 | – | – | –
CCn1c(NC2CCCC2)nc2cc(CNc3cccnc3)sc2c1=O | 6.04 | – | < 6.00 | – | – | –
CCn1c(NC2CCCC2)nc2cc(C)sc2c1=O | – | – | 4.96 | – | – | –
C=CCNc1nc2cc(-c3ccc(C(=O)NCCCN(C)C)cc3)sc2c(=O)n1C | – | – | 6.51 | – | – | –
C=CCNc1nc2cc(-c3cccc(C(=O)NCCO)c3)sc2c(=O)n1C | – | – | 5.96 | – | – | –
CCn1c(NC2CCCC2)nc2c(-c3cccnc3)csc2c1=O | 6.42 | 7.05 | 8.70 | permeable | Unstable | Unstable
CCc1csc2c(=O)n(CC)c(NC3CCCC3)nc12 | 5.23 | 5.54 | 7.38 | – | – | –
C=CCNc1nc2ccsc2c(=O)n1C | – | – | 5.30 | – | – | –
CCc1cc2nc(NC3CCCC3)n(CC)c(=O)c2s1 | 5.46 | – | 5.19 | – | – | –
C=CCNc1nc2cc(-c3ccccc3)sc2c(=O)n1C | – | – | 5.17 | – | – | –
C=CCNc1nc2cc(-c3ccc(N4CCN(C(C)C)CC4)cc3)sc2c(=O)n1C | – | – | 6.80 | – | – | –
CCn1c(NC2CCCC2)nc2c(C#Cc3cccnc3)csc2c1=O | 5.85 | 5.89 | 8.38 | – | – | –
CCn1c(NC2CCCC2)nc2c(-c3cccc(C(=O)OC)c3)csc2c1=O | 6.32 | 6.54 | 8.30 | – | – | –
CCn1c(NC2CCCC2)nc2c(-c3ccc(N4CCOCC4)nc3)csc2c1=O | 6.28 | 7.11 | – | permeable | Unstable | Unstable
C=Cc1csc2c(=O)n(CC)c(NC3CCCC3)nc12 | 5.43 | 6.01 | 7.52 | – | – | –
CCn1c(NC2CCCC2)nc2cc(C(=O)Nc3ccc(N4CCC(O)CC4)nc3)sc2c1=O | – | – | 5.59 | – | – | –
CCn1c(NC2CCCC2)nc2c(N3CCN(C(=O)OC(C)(C)C)CC3=O)csc2c1=O | 5.48 | 5.52 | 7.92 | – | – | –
